One assay concerns the target T1, IK1 (Kir2.1) (Homo sapiens, UniProt P63252).
T1 construct: endogenous in cells; host or cells: freshly isolated human atrial myocytes
T1 sequence (P63252 1-427): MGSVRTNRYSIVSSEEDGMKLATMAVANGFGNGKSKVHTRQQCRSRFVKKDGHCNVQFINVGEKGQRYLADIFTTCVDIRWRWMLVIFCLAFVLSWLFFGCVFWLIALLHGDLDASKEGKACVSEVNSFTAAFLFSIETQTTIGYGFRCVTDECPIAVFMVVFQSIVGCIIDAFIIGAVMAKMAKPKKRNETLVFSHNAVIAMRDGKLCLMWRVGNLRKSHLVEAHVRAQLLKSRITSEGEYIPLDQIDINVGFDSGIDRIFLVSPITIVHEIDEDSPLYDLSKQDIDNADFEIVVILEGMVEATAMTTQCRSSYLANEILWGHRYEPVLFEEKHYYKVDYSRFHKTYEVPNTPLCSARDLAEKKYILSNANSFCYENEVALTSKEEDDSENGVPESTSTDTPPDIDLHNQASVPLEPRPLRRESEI
Briefly: Whole-cell patch clamp in human atrial myocytes: IK1. Format: cell-based. The note with it: n = 3 cells. On the procedure: (§1) The blocking profile of the compounds of the invention is determined on the following channels of the human atrial myocytes: INa, Ito, Isus and IK1 channel currents.
Human atrial myocytes: Myocytes were prepared from specimens with grossly normal anatomical aspect, excised from hearts of patients with normal P-wave electrocardiogram, undergoing bypass surgery. Human atrial sample were obtained following approval by the ethical committee. […]
(§2) Experiments were performed at room temperature (20-25° C.) for INa and at 32-34° C. for Ito, Isus, IK1. Currents were measured using the whole-cell variant of the patch clamp method. […]
After rupture of the cell membrane to enter the whole-cell mode, current amplitude and kinetics were allowed to stabilize for 3-7 min before initiating the experimental procedure. K^+ currents recorded from human atrial myocytes were elicited by a 500 ms pulse to +60 mV from a holding potential of −50 mV for Ito and Isus. Ito was measured as a peak current amplitude whereas Isus as a current present at the end of the 500 ms voltage pulse. In addition, the area under the curve, before and after compound, were measured over the course of the pulse period. […]
For orientation: The patch-clamp technique gives a direct electrical read-out from membranes.

The next assay has as its target T2, INa (SCN5a) (Homo sapiens, UniProt Q14524).
T2 construct: endogenous in cells; host or cells: freshly isolated human atrial myocytes (bypass-surgery patients)
In words: Whole-cell patch clamp in human atrial myocytes: INa. The assay is classed as cell-based. The note with it: n = 3 cells. On the procedure:
as §1
Human atrial myocytes: Myocytes were prepared from specimens with grossly normal anatomical aspect, excised from hearts of patients with normal P-wave electrocardiogram, undergoing bypass surgery. Human atrial sample were obtained following approval by the ethical committee. Atrial tissue samples were quickly immersed in a cardioplegic solution (in mM: 50 KH2PO4, 8 MgSO4, 10 NaHCO3, 5 adenosine, 25 taurine, 140 glucose, and 100 mannitol, titrated to a pH of 7.4 and bubbled with 100% O2 at 0-4° C.) and rapidly delivered to the laboratory. The tissue was then minced onto 0.5-1 mm^2 chunks within 30 min after the excision procedure and transferred to a 50 ml conical tube containing wash solution deprived of Ca^2+ (in mM: 137 NaCl, KH2PO4, 1 MgSO4, 10 taurine, 10 glucose, 5 HEPES, and 100 μmol/L (µM) EGTA; pH=7.4, room temperature 22-24° C.). […]
as §2
Raw data and mean ±SEM are given. […] This is measured as current reduction after a steady-state effect has been reached in the presence of drug relative to current amplitude before drug was introduced (control). […]

Structures are written as SMILES.

T2 sequence (Q14524 whole entry): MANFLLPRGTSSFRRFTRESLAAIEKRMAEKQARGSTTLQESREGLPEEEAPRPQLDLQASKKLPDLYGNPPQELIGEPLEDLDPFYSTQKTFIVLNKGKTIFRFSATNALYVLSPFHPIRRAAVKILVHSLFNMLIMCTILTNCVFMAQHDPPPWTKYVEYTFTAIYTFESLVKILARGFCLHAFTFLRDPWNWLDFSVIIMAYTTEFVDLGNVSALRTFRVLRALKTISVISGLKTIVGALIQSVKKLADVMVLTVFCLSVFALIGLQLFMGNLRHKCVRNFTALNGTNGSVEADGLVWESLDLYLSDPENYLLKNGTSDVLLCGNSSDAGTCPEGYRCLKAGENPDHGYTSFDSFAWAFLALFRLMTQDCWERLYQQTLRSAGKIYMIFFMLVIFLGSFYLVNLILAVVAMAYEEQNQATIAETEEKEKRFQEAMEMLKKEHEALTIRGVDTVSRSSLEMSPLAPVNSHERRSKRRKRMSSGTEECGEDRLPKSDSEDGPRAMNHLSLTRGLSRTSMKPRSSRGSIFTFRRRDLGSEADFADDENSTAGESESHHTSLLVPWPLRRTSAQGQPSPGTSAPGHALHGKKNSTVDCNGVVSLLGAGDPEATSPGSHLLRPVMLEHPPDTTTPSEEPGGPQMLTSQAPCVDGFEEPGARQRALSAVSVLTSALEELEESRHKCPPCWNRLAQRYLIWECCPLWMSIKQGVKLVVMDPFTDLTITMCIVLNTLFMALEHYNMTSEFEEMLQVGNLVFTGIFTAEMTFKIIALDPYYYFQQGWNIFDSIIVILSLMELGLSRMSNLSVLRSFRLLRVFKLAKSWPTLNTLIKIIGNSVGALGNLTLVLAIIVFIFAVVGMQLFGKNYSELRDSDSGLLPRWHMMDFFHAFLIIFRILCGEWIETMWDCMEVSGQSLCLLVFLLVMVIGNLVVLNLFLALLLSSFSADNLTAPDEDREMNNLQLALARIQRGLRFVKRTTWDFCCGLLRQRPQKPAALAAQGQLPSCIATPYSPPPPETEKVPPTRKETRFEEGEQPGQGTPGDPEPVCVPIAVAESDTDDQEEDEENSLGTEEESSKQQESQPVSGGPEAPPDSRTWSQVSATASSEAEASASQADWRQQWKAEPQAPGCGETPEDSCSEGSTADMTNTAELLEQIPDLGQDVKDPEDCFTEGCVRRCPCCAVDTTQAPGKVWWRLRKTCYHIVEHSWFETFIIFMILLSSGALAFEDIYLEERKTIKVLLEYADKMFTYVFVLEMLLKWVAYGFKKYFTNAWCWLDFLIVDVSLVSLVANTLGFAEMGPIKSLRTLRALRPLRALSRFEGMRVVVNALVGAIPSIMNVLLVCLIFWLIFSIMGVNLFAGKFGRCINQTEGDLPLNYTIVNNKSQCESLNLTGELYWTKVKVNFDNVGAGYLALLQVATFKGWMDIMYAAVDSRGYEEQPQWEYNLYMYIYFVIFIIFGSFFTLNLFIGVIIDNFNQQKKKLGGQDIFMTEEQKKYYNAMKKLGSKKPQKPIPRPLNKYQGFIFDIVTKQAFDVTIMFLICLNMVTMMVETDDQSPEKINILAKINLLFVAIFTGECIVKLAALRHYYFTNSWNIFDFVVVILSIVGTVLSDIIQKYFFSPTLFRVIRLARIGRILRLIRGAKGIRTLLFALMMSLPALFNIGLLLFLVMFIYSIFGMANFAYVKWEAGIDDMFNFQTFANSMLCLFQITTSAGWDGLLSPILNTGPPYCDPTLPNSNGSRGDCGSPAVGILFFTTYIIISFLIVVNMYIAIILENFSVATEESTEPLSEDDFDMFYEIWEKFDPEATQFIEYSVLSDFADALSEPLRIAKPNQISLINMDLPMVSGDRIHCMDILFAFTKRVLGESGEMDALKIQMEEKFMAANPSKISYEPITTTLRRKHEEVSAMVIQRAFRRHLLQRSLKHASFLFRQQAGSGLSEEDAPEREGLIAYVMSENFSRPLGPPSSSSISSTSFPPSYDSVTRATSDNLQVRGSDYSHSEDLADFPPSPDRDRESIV

As to `COc1ccccc1Nc1nc(C)c(C(=O)N[C@H]2CCC[C@@H]2OCc2ccccc2)s1` [Compound 68, 2-(2-methoxy-phenylamino)-4-methyl-thiazole-5-carboxylic acid (1S,2S)-2-(benzyloxycyclopent-1-yl) amide], on IK1 (Kir2.1), the “Block at 10 μM in %: IK1 (Kir2.1)” value is reported as −2.7 ± 2.0%. Also, the “Block at 10 μM in %: INa (SCN5a)” value at INa (SCN5a) is listed as 0 ± 0.5%.

The values above are taken from patent US20080125432A1 (Devgen NV, priority 2004, published 2008).
